Our source for the MIC values is US12552825B2 (Zikani Therapeutics, Inc., priority 2019, dated 2026).

Assay type in all cases: cell-based
One test concerns E. coli MP-4. Description: MIC determination by CLSI broth dilution, E. coli MP-4. Particulars: Escherichia coli, MP4, CLSI broth dilution; strain MP-4. Background: Dilution methods test growth across graded concentrations, often in twofold steps.
A further test has as its system S. aureus MP-12. Description: microbe, parasite or virus in culture. Particulars: Staphylococcus aureus, MP12, read-out: MIC S. aureus MP-12.
A further test deals with P. aeruginosa MP-3. In words: MIC determination by CLSI broth dilution, P. aeruginosa MP-3. As to conditions: Pseudomonas aeruginosa, MP3, strain MP-3.
The subject of the next test is K. pneumoniae MP-648. Description: MIC determination by CLSI broth dilution, K. pneumoniae MP-648. As to conditions: Klebsiella pneumoniae, MP648, CLSI broth dilution; strain MP-648.
In another test the test system is A. baumannii MP-15. In words: MIC determination by CLSI broth dilution, A. baumannii MP-15. Particulars: Acinetobacter baumannii, MP15, strain MP-15, read-out: MIC A. baumanii MP-15.
In another test the test system is K. pneumoniae MP-546. In words: MIC determination by CLSI broth dilution, K. pneumoniae MP-546. Particulars: Klebsiella pneumoniae, MP546, CLSI broth dilution; strain MP-546.

Structures are written as SMILES. Converted amounts (≈) assume the structure as drawn.

With `CCN1C[C@H](C)C[C@@](C)(OC)[C@H](O[C@@H]2O[C@H](C)C[C@H](N(C)C)[C@H]2O)[C@@H](C)C(=O)C(C)(C)C(=O)OC[C@@H]1CN1CCN(C(C)C)CC1` [Compound 159], the MIC is less than 4 µg/mL with E. coli MP-4; 4 to 32 µg/mL (≈ 6.11 to 48.9 µM) in the test with S. aureus MP-12; more than 32 µg/mL against P. aeruginosa MP-3; 4 to 32 µg/mL (≈ 6.11 to 48.9 µM) with K. pneumoniae MP-648; more than 32 µg/mL with A. baumannii MP-15.

For the molecule `CCN1C[C@H](C)C[C@@](C)(OC)[C@H](O[C@@H]2O[C@H](C)C[C@H](N(C)C)[C@H]2O)[C@@H](C)C(=O)C(C)(C)C(=O)OC[C@@H]1CN1CCN(C)CC1` [Compound 157, (3S,6R,8R,9R,10R)-9-(((2S,3R,4S,6R)-4-(dimethylamino)-3-hydroxy-6-methyltetrahydro-2H-pyran-2-yl)oxy)-4-ethyl-8-methoxy-6,8,10,12,12-pentamethyl-3-((4-methylpiperazin-1-yl)methyl)-1-oxa-4-azacyclotridecane-11,13-dione], the MIC is less than 4 µg/mL against E. coli MP-4; 4 to 32 µg/mL (≈ 6.38 to 51 µM) in the test with S. aureus MP-12; more than 32 µg/mL against P. aeruginosa MP-3; 4 to 32 µg/mL (≈ 6.38 to 51 µM) with K. pneumoniae MP-648; more than 32 µg/mL in the test with A. baumannii MP-15.

With `CO[C@]1(C)C[C@@H](C)CN(C)[C@H](/C=C/CN(C)Cc2ccc(F)cc2)COC(=O)C(C)(C)C(=O)[C@H](C)[C@H]1O[C@@H]1O[C@H](C)C[C@H](N(C)C)[C@H]1O` [Compound 195], the MIC in the test on E. coli MP-4 is less than 4 µg/mL; with S. aureus MP-12, 4 to 32 µg/mL (≈ 5.9 to 47.2 µM); with P. aeruginosa MP-3, more than 32 µg/mL; against K. pneumoniae MP-648, 4 to 32 µg/mL (≈ 5.9 to 47.2 µM); with A. baumannii MP-15, 4 to 32 µg/mL (≈ 5.9 to 47.2 µM).

Take `CCCN(CCC)CC[C@@](C)(O)[C@@H]1COC(=O)C(C)(C)C(=O)[C@H](C)[C@@H](O[C@@H]2O[C@H](C)C[C@H](N(C)C)[C@H]2O)[C@](C)(OC)C[C@@H](C)CN1C` [Compound 229]: the MIC in the test on E. coli MP-4 was 4 to 32 µg/mL (≈ 5.95 to 47.6 µM); in the test with S. aureus MP-12, 4 to 32 µg/mL (≈ 5.95 to 47.6 µM); in the test with P. aeruginosa MP-3, more than 32 µg/mL; against K. pneumoniae MP-648, more than 32 µg/mL; with A. baumannii MP-15, more than 32 µg/mL.

With `CCCN1CCC(C[C@@H]2[C@@H](C)OC(=O)C(C)(C)C(=O)[C@H](C)[C@@H](O[C@@H]3O[C@H](C)C[C@H](N(C)C)[C@H]3O)[C@](C)(OC)C[C@@H](C)CN2C)CC1` [Compound 38], the MIC in the test with K. pneumoniae MP-546 is less than 4 µg/mL; in the test on E. coli MP-4 it was less than 4 µg/mL; in the test on S. aureus MP-12 it was more than 32 µg/mL; against P. aeruginosa MP-3 it was more than 32 µg/mL; in the test on A. baumannii MP-15, more than 32 µg/mL.

Turning to `CO[C@]1(C)C[C@@H](C)CN(C)[C@@H](CC2CCN(CC(C)C)CC2)COC(=O)C(C)(C)C(=O)[C@H](C)[C@H]1O[C@@H]1O[C@H](C)C[C@H](N(C)C)[C@H]1O` [Compound 67], the MIC in the test on K. pneumoniae MP-546 was 4 to 32 µg/mL (≈ 6.12 to 48.9 µM); in the test on E. coli MP-4 it was 4 to 32 µg/mL (≈ 6.12 to 48.9 µM); in the test on S. aureus MP-12, more than 32 µg/mL; in the test with P. aeruginosa MP-3, more than 32 µg/mL; in the test with A. baumannii MP-15 it was more than 32 µg/mL.

In the case of `CO[C@]1(C)C[C@@H](C)CN(C)[C@@H](CC2CCN(C(=O)C3CC3)CC2)COC(=O)C(C)(C)C(=O)[C@H](C)[C@H]1O[C@@H]1O[C@H](C)C[C@H](N(C)C)[C@H]1O` [Compound 44], the MIC with K. pneumoniae MP-546 is more than 32 µg/mL; against E. coli MP-4, more than 32 µg/mL; with S. aureus MP-12 it was 4 to 32 µg/mL (≈ 6.01 to 48.1 µM); against P. aeruginosa MP-3, more than 32 µg/mL; with A. baumannii MP-15 it was more than 32 µg/mL.

With `CO[C@]1(C)C[C@@H](C)CN(C)[C@@H](CC2CCN(C(C)C)CC2)COC(=O)C(C)(C)C(=O)[C@H](C)[C@H]1O[C@@H]1O[C@H](C)C[C@H](N(C)C)[C@H]1O` [Compound 68], the MIC was 4 to 32 µg/mL (≈ 6.25 to 50 µM) against K. pneumoniae MP-546; 4 to 32 µg/mL (≈ 6.25 to 50 µM) in the test on E. coli MP-4; more than 32 µg/mL in the test with S. aureus MP-12; more than 32 µg/mL against P. aeruginosa MP-3; more than 32 µg/mL with A. baumannii MP-15.

`CO[C@]1(C)C[C@@H](C)CN(C)[C@@H](CC2CCN(CC[C@@H](C)CCC=C(C)C)CC2)COC(=O)C(C)(C)C(=O)[C@H](C)[C@H]1O[C@@H]1O[C@H](C)C[C@H](N(C)C)[C@H]1O` [Compound 71]: the MIC against K. pneumoniae MP-546 is more than 32 µg/mL; with E. coli MP-4, 4 to 32 µg/mL (≈ 5.43 to 43.5 µM); in the test on S. aureus MP-12, more than 32 µg/mL; with P. aeruginosa MP-3 it was more than 32 µg/mL; with A. baumannii MP-15 it was more than 32 µg/mL.

Consider `CCCCCCCN1CCC(C[C@H]2COC(=O)C(C)(C)C(=O)[C@H](C)[C@@H](O[C@@H]3O[C@H](C)C[C@H](N(C)C)[C@H]3O)[C@](C)(OC)C[C@@H](C)CN2C)CC1` [Compound 70], for which the MIC in the test with K. pneumoniae MP-546 is 4 to 32 µg/mL (≈ 5.75 to 46 µM); in the test on E. coli MP-4, less than 4 µg/mL; in the test with S. aureus MP-12 it was more than 32 µg/mL; in the test on P. aeruginosa MP-3, more than 32 µg/mL; in the test with A. baumannii MP-15, more than 32 µg/mL.

`CO[C@]1(C)C[C@@H](C)CN(C)[C@H](CC2CCN(CC(C)(C)C)CC2)C(C)(C)OC(=O)C(C)(C)C(=O)[C@H](C)[C@H]1O[C@@H]1O[C@H](C)C[C@H](N(C)C)[C@H]1O` [Compound 36]: the MIC with K. pneumoniae MP-546 was 4 to 32 µg/mL (≈ 5.75 to 46 µM); against E. coli MP-4, less than 4 µg/mL; in the test on S. aureus MP-12, 4 to 32 µg/mL (≈ 5.75 to 46 µM); with P. aeruginosa MP-3, more than 32 µg/mL; in the test on A. baumannii MP-15, 4 to 32 µg/mL (≈ 5.75 to 46 µM).

Consider `CO[C@]1(C)C[C@@H](C)CN(C)[C@@H](CC2CCN(CC3CCCCC3)CC2)COC(=O)C(C)(C)C(=O)[C@H](C)[C@H]1O[C@@H]1O[C@H](C)C[C@H](N(C)C)[C@H]1O` [Compound 72], for which the MIC was 4 to 32 µg/mL (≈ 5.76 to 46.1 µM) with K. pneumoniae MP-546; less than 4 µg/mL against E. coli MP-4; more than 32 µg/mL in the test with S. aureus MP-12; more than 32 µg/mL with P. aeruginosa MP-3; more than 32 µg/mL in the test on A. baumannii MP-15.

`CO[C@]1(C)C[C@@H](C)CN(C)[C@@H](C(=O)N2CCN(C)CC2)[C@H](C)OC(=O)C(C)(C)C(=O)[C@H](C)[C@H]1O[C@@H]1O[C@H](C)C[C@H](N(C)C)[C@H]1O` [Compound 97, (2S,3R,6R,8R,9R,10R)-9-(((2S,3R,4S,6R)-4-(dimethylamino)-3-hydroxy-6-methyltetrahydro-2H-pyran-2-yl)oxy)-8-methoxy-2,4,6,8,10,12,12-heptamethyl-3-(4-methylpiperazine-1-carbonyl)-1-oxa-4-azacyclotridecane-11,13-dione]: the MIC with K. pneumoniae MP-546, against E. coli MP-4, in the test with S. aureus MP-12, in the test with P. aeruginosa MP-3 and with A. baumannii MP-15 was more than 32 µg/mL in each case.

Turning to `CO[C@]1(C)C[C@@H](C)CN[C@@H](CN(C)C)COC(=O)C(C)(C)C(=O)[C@H](C)[C@H]1O[C@@H]1O[C@H](C)C[C@H](N(C)C)[C@H]1O` [Compound 17, (3S,6R,8R,9R,10R)-9-(((2S,3R,4S,6R)-4-(dimethylamino)-3-hydroxy-6-methyltetrahydro-2H-pyran-2-yl)oxy)-3-((dimethylamino)methyl)-8-methoxy-6,8,10,12,12-pentamethyl-1-oxa-4-azacyclotridecane-11,13-dione], the MIC with K. pneumoniae MP-546, in the test with E. coli MP-4, with S. aureus MP-12, in the test with P. aeruginosa MP-3 and in the test on A. baumannii MP-15 was more than 32 µg/mL each time.

As for `CCCN1CCC(C[C@H]2COC(=O)C(C)(C)C(=O)[C@H](C)[C@@H](O[C@@H]3O[C@H](C)C[C@H](N(C)C)[C@H]3O)[C@](C)(OC)C[C@@H](C)CN2C)CC1` [Compound 41], the MIC against K. pneumoniae MP-546 is 4 to 32 µg/mL (≈ 6.25 to 50 µM); against E. coli MP-4 it was 4 to 32 µg/mL (≈ 6.25 to 50 µM); in the test on S. aureus MP-12, more than 32 µg/mL; in the test on P. aeruginosa MP-3, more than 32 µg/mL; in the test on A. baumannii MP-15, more than 32 µg/mL.

On to `CO[C@]1(C)C[C@@H](C)CN(C)[C@H](CC2CCN(CC(C)(C)C)CC2)[C@@H](C)OC(=O)C(C)(C)C(=O)[C@H](C)[C@H]1O[C@@H]1O[C@H](C)C[C@H](N(C)C)[C@H]1O` [Compound 39], for which the MIC against K. pneumoniae MP-546 was 4 to 32 µg/mL (≈ 5.87 to 46.9 µM); in the test with E. coli MP-4, less than 4 µg/mL; with S. aureus MP-12 it was more than 32 µg/mL; against P. aeruginosa MP-3 it was more than 32 µg/mL; in the test on A. baumannii MP-15, more than 32 µg/mL.
